# Experimental data taken from patent US11077206B2, “Composition for gene therapy or transfection, and preparation method and use thereof” (SHANGHAI CHANGZHENG HOSPITAL, priority 2017, dated 2021).
# System: Hela-luci cells
# Assay: cytotoxicity in Hela-luci cells by MTT method
# Assay type: cell-based
# Settings: 24 hours, siRNA (and cationic polymer where named) at transfection concentration, EGCG dose well above the transfection dose
# Procedure: (§1) A method for studying the cytotoxicity of the natural polyphenol EGCG in the present invention comprises steps of: incubating Hela-luci cells in a 96-well plate at a cell density of 10^4 cells/well, removing a medium after incubation for 12 hours, and adding 100 μl fresh medium containing the siRNA whose concentration is the same as transfection concentration and a certain amount of EGCG, where the concentration of EGCG is from low to high (comprising the transfection concentration), and a final concentration is much higher than the transfection concentration; culturing for 24 hours, and measuring cytotoxicity by a MTT method.
# as §1, with “polyphenol EGCG and cationic polymer LPEI in the” for “polyphenol EGCG in the”, “the siRNA and LPEI whose concentration” for “the siRNA whose concentration”, “MTT method. […]” for “MTT method.”
compound,measurement,value
O=C(O[C@@H]1Cc2c(O)cc(O)cc2O[C@@H]1c1cc(O)c(O)c(O)c1)c1cc(O)c(O)c(O)c1 [EGCG],cell viability,more than 90%
